Laboratory results: patent publication US20040110802A1, “Antibacterial benzoic acid derivatives” (priority 2002, published 2004)
≈ marks a conversion by molar mass, not a printed value.

test system: SAUR 9218; assay: MIC Test Method, standard agar dilution; type: cell-based; details: agar dilution, Mueller Hinton agar, incubated overnight at 35° C.; lowest concentration that inhibits visible growth
In short: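 Agar dilution in Mueller Hinton agar with serial 2-fold compound dilutions. Staphylococcus aureus strain 9218 spotted at approximately 10^4 to 10^5 cells per spot, incubated overnight at 35 °C; MIC (μg/ml) is the lowest concentration preventing visible growth.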

Compound	SAUR 9218 MIC
CN(c1ccc(Cl)cc1)S(=O)(=O)c1cc(C(=O)Nc2ccc(Br)cc2C(=O)O)cs1 [drawing 825]	2 µg/mL
Cc1sc(C(=O)Nc2ccc(C#N)cc2C(=O)O)cc1S(=O)(=O)N(C)C(C)C(O)c1ccccc1 (centres unmarked) [drawing 953]	32 µg/mL
Cc1sc(C(=O)Nc2ccc(C#N)cc2C(=O)O)cc1S(=O)(=O)N(C)C(C)C(O)c1ccccc1 (centres unmarked) [drawing 960]	128 µg/mL
O=C(Nc1ccc(Cl)cc1C(=O)O)c1cc(-c2ccccc2)on1 [drawing 1111]	0.5 µg/mL

same assay, conditions: agar dilution, Mueller Hinton agar, incubated overnight at 35° C.; lowest concentration that inhibits visible growth; read-out: SAUR 9218 MIC

Compound	MIC
O=C(Nc1ccc(Br)cc1C(=O)O)c1csc(S(=O)(=O)N2CCN(c3cccc(C(F)(F)F)c3)CC2)c1	16 µg/mL (≈ 25.9 µM)
O=C(O)c1cc(Br)ccc1NC(=O)c1cc(-c2ccccc2)nc2ccccc12	64 µg/mL (≈ 143 µM)
N#Cc1ccc(NC(=O)c2noc3ccc(NS(=O)(=O)Cc4ccccc4)cc23)c(C(=O)O)c1	0.125 µg/mL (≈ 0.262 µM)
Cn1c(C(=O)Nc2ccc(C#N)cc2C(=O)O)cc2ccc(OCc3ccccc3)cc21	0.125 µg/mL (≈ 0.294 µM)
COc1ccc2cc(C(=O)Nc3ccc(C#N)cc3C(=O)O)n(C)c2c1	0.5 µg/mL (≈ 1.43 µM)
CC(C)Oc1ccccc1-c1cc(C(=O)Nc2ccc(C#N)cc2C(=O)O)no1	0.125 µg/mL (≈ 0.319 µM)
Cn1c(C(=O)Nc2ccc(C#N)cc2C(=O)O)cc2cccc(NC(=O)N3CCOCC3)c21	8 µg/mL (≈ 17.9 µM)
Cn1c(C(=O)Nc2ccc(C#N)cc2C(=O)O)cc2cccc(NC(=O)NCC3CCCO3)c21 (centres unmarked)	1 µg/mL (≈ 2.17 µM)
Cn1c(C(=O)Nc2ccc(C#N)cc2C(=O)O)cc2cccc(O)c21	1 µg/mL (≈ 2.98 µM)
CC1(C)OCC(CCc2nc(C(=O)Nc3ccc(Br)cc3C(=O)O)co2)O1 (centres unmarked)	> 128 µg/mL
N#Cc1ccc(NC(=O)c2cnc(CCc3ccccc3)cn2)c(C(=O)O)c1	16 µg/mL (≈ 43 µM)
CC1(C)OCC(/C=C/c2cnc(C(=O)Nc3ccc(Br)cc3C(=O)O)cn2)O1 (centres unmarked)	32 µg/mL (≈ 71.4 µM)
O=C(Nc1ccc(Cl)cc1C(=O)O)c1cc(-c2ccccc2)on1 [drawing 1106]	1 µg/mL (≈ 2.92 µM)
CN(c1ccc(Cl)cc1)S(=O)(=O)c1cc(C(=O)Nc2ccc(Br)cc2C(=O)O)cs1 [drawing 1603]	4 µg/mL (≈ 7.55 µM)

same assay, conditions: read-out: SAUR 9218 MIC

Compound	MIC
N#Cc1ccc(NC(=O)c2cc3cccc(NC(=O)CF)c3[nH]2)c(C(=O)O)c1	2 µg/mL (≈ 5.26 µM)
Cn1c(C(=O)Nc2ccc(C#N)cc2C(=O)O)cc2cccc(NC(=O)CF)c21	1 µg/mL (≈ 2.54 µM)
